In test [1] the test system is Mtb 352. The test is described as follows: microbe, parasite or virus in culture. It is filed as cell-based, Mycobacterium tuberculosis. The following applies: Mycobacterium tuberculosis, 352, read-out: MIC (µg/ml) Mtb 352.
Test [2] relates to Mtb 365. The test is described as follows: microbe, parasite or virus in culture. The format is cell-based, Mycobacterium tuberculosis. The following applies: Mycobacterium tuberculosis, 365, read-out: MIC (µg/ml) Mtb 365.
For test [3], the system named is Mtb 276. In words: microbe, parasite or virus in culture. The following applies: Mycobacterium tuberculosis, 276, read-out: MIC (µg/ml) Mtb 276. It is filed as cell-based, Mycobacterium tuberculosis.
The subject of test [4] is Mtb 56. The test is described as follows: microbe, parasite or virus in culture. It is filed as cell-based, Mycobacterium tuberculosis. As to conditions: Mycobacterium tuberculosis, 56, read-out: MIC (µg/ml) Mtb 56.
Test [5] relates to M. tuberculosis ATCC 35801 (strain Erdman). In words: Microtiter broth dilution MIC, Mtb Erdman. As to conditions: resistance pattern, S3 Table.
Test [6] relates to Mtb 5. In words: microbe, parasite or virus in culture. The format is cell-based, Mycobacterium tuberculosis. As to conditions: Mycobacterium tuberculosis, 5, read-out: MIC (µg/ml) Mtb 5.
Test [7] concerns MDR and XDR strains of M. tuberculosis. The test is described as follows: microbe, parasite or virus in culture. The format is cell-based. The following applies: Mycobacterium tuberculosis, read-out: MIC values across the resistant strains.

Each structure is given as a SMILES string. Values after ≈ are worked out from the molar mass of the structure shown.

With `CC[C@@H](CO)NCCN[C@@H](CC)CO` [Ethambutol, reference compound], the MIC in test [1] came to 1 µg/mL (≈ 4.89 µM); in test [2], 32 µg/mL (≈ 157 µM); in test [3], 4 µg/mL (≈ 19.6 µM); in test [4], 32 µg/mL (≈ 157 µM). In addition, in test [5], the “MIC (µg/ml) Mtb Erdmann” value stood at 1 µg/mL (≈ 4.89 µM).

Regarding `NNC(=O)c1ccncc1` [INH, Isoniazid, reference compound], the MIC in test [1] is 1 µg/mL (≈ 7.29 µM); in test [6] it was 2 µg/mL (≈ 14.6 µM); in test [2], 4 µg/mL (≈ 29.2 µM); in test [3], 0.25 µg/mL (≈ 1.82 µM); in test [4], 2 µg/mL (≈ 14.6 µM); in test [7], 0.25 to 4 µg/mL (≈ 1.82 to 29.2 µM). Moreover, in test [5], the “MIC (µg/ml) Mtb Erdmann” value amounted to 0.06 µg/mL (≈ 0.438 µM).

As to `COc1c(N2C[C@@H]3CCCN[C@@H]3C2)c(F)cc2c(=O)c(C(=O)O)cn(C3CC3)c12` [Moxifloxacin, reference compound], the MIC in test [6] turned out to be 1 µg/mL (≈ 2.49 µM); in test [2], 0.06 µg/mL (≈ 0.149 µM). Besides, the “MIC (µg/ml) Mtb Erdmann” value in test [5] amounted to 0.06 µg/mL (≈ 0.149 µM).

On to `CO[C@H]1/C=C/O[C@@]2(C)Oc3c(C)c(O)c4c(O)c(c(/C=N/N5CCN(C)CC5)c(O)c4c3C2=O)NC(=O)/C(C)=C\C=C\[C@H](C)[C@H](O)[C@@H](C)[C@@H](O)[C@@H](C)[C@H](OC(C)=O)[C@@H]1C` [RIF, rifampin, reference compound], for which the MIC in test [1] stood at 0.001 µg/mL (≈ 0.00122 µM); in test [6], 8 µg/mL (≈ 9.72 µM); in test [2], 64 µg/mL (≈ 77.8 µM); in test [3], 0.015 µg/mL (≈ 0.0182 µM); in test [4] it was 32 µg/mL (≈ 38.9 µM). In test [5], the “MIC (µg/ml) Mtb Erdmann” value worked out at 0.004 µg/mL (≈ 0.00486 µM).

With `[H]/N=C(/N)N[C@H]1[C@H](O)[C@@H](O)[C@H](O[C@@H]2O[C@@H](C)[C@](O)(C=O)[C@H]2O[C@@H]2O[C@@H](CO)[C@H](O)[C@@H](O)[C@@H]2NC)[C@@H](N/C(N)=N\[H])[C@@H]1O` [Streptomycin, reference compound], the MIC is 0.25 µg/mL (≈ 0.43 µM) in test [1], 32 µg/mL (≈ 55 µM) in test [2], 0.25 µg/mL (≈ 0.43 µM) in test [3] and 32 µg/mL (≈ 55 µM) in test [4].

For the origin of these results see publication PMC5006990 (PLoS ONE, 2016).
